Measurements reported in US20230295118A1 (EnhancedBio Inc., priority 2022, published 2023).
Where two headings read alike, the source gives them in different places.

How the values were obtained:
Type in all cases: cell-based
CDK6 = biological target: T1, CDK6 (Homo sapiens, UniProt Q00534); test: CDK6 degradation (DC50, Dmax)
T1 construct: endogenous in cells

[1] = tested on: mantle cell lymphoma cell (Mino or JeKo-1); test: Antiproliferative effect, MTS cell viability assay
In short: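 Mino cells treated with compounds at 0, 0.0001, 0.001, 0.01, 0.1, 1 μM for 72 h; palbociclib and abemaciclib as positive controls. Viability by MTS, formazan absorbance read at 490 nm.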

CDK4 = biological target: T2, CDK4 (Homo sapiens, UniProt P11802); test: CDK4 degradation (DC50, Dmax)
T2 construct: endogenous in cells

[2] = 72 h, mantle cell lymphoma cell (Mino or JeKo-1), MTS assay, read-out: IC50 (anti-proliferation)
[3] = Mino cells; 0-1 μM; 72 h; result in words

T1 sequence (Q00534 whole entry): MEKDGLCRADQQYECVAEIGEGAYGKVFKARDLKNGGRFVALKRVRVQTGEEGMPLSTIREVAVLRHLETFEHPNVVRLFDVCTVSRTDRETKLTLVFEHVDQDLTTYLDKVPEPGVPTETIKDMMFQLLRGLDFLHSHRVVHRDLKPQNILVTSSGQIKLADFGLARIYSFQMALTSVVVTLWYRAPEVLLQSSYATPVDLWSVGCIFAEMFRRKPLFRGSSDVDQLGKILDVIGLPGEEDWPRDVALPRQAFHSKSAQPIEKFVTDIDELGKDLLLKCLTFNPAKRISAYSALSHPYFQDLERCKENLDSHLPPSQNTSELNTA
T2 sequence (P11802 whole entry): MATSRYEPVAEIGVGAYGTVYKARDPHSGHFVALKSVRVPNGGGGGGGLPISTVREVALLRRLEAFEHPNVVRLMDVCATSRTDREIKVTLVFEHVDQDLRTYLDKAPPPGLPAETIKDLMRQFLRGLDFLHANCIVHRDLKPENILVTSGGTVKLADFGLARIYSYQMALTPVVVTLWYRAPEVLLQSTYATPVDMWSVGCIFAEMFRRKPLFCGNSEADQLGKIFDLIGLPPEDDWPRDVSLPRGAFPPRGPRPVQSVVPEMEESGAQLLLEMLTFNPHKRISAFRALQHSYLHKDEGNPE

Row | SMILES | DC50 (CDK6) [µM] | Dmax (CDK6) [%] | IC50 [1, 2] [µM] | DC50 (CDK4) [µM] | Dmax (CDK4) [%] | inhibition of cell proliferation of Mino cells [1, 3] | Dmax CDK6 (CDK6) | IC50 ([1]; mantle cell lymphoma cell (Mino or JeKo-1); MTS assay, 72 h; read-out: IC50 (anti-proliferation)) [µM] | Dmax CDK4 (CDK4)
1 | Cc1nc2c(F)cc(-c3nc(Nc4ccc(CN5CCN(CCNc6cccc7c6CN(C6CCC(=O)NC6=O)C7=O)CC5)cn4)ncc3F)cc2n1C(C)C (centres unmarked) [Compound 93] | 0.05 to 0.2 | – | – | 0.05 to 0.2 | – | – | A (A: >80%) | < 0.05 | A (A: >80%)
2 | Cc1nc2c(F)cc(-c3nc(Nc4ccc(CN5CCN(C6CN(c7ccc8c(c7)CN(C7CCC(=O)NC7=O)C8=O)C6)CC5)cn4)ncc3F)cc2n1C(C)C (centres unmarked) [Compound 97, 3-(5-(3-(4-((6-((5-fluoro-4-(4-fluoro-1-isopropyl-2-methyl-1H-benzo[d]imidazol-6-yl)pyrimidin-2-yl)amino)pyridin-3-yl)methyl)piperazin-1-yl)azetidin-1-yl)-1-oxoisoindolin-2-yl)piperidine-2,6-dione] | < 0.05 | > 80 | < 0.05 | < 0.05 | > 80 | – | – | – | –
3 | Cc1nc2c(F)cc(-c3nc(Nc4ccc(CN5CCN(C6CN(c7cccc8c7CN(C7CCC(=O)NC7=O)C8=O)C6)CC5)cn4)ncc3F)cc2n1C(C)C (centres unmarked) [Compound 99, 3-(4-(3-(4-((6-((5-fluoro-4-(4-fluoro-1-isopropyl-2-methyl-1H-benzo[d]imidazol-6-yl)pyrimidin-2-yl)amino)pyridin-3-yl)methyl)piperazin-1-yl)azetidin-1-yl)-1-oxoisoindolin-2-yl)piperidine-2,6-dione] | 0.05 to 0.2 | > 60 | 0.05 to 0.2 | 0.05 to 0.2 | > 60 | – | – | – | –
4 | Cc1nc2c(F)cc(-c3nc(Nc4ccc(CN5CCN(CCCNc6cccc7c6C(=O)N(C6CCC(=O)NC6=O)C7=O)CC5)cn4)ncc3F)cc2n1C(C)C (centres unmarked) [Compound 100, 2-(2,6-dioxopiperidin-3-yl)-4-((3-(4-((6-((5-fluoro-4-(4-fluoro-1 isopropyl-2-methyl-1H-benzo[d]imidazol-6-yl)pyrimidin-2-yl)amino)pyridin-3-yl)methyl)piperazin-1-yl)propyl)amino) isoindoline-1,3-dione] | 0.05 to 0.2 | > 80 | < 0.05 | 0.05 to 0.2 | > 80 | dose-dependent inhibition of cell proliferation | – | – | –
5 | Cc1nc2c(F)cc(-c3nc(Nc4ccc(CN5CCN(c6cccc7c6C(=O)N(C6CCC(=O)NC6=O)C7=O)CC5)cn4)ncc3F)cc2n1C(C)C (centres unmarked) [Compound 101, 2-(2,6-dioxopiperidin-3-yl)-4-(4-((6-((5-fluoro-4-(4-fluoro-1-isopropyl-2-methyl-1H-benzo[d]imidazol-6-yl)pyrimidin-2-yl)amino)pyridin-3-yl)methyl)piperazin-1-yl)isoindoline-1,3-dione] | 0.05 to 0.2 | > 80 | 0.05 to 0.2 | 0.05 to 0.2 | > 60 | – | – | – | –
6 | CC(=O)c1c(C)c2cnc(Nc3ccc(N4CCN(CCCN(C)c5cccc6c5C(=O)N(C5CCC(=O)NC5=O)C6=O)CC4)cn3)nc2n(C2CCCC2)c1=O (centres unmarked) [Compound 103, 4-((3-(4-(6-((6-acetyl-8-cyclopentyl-5-methyl-7-oxo-7,8-dihydropyrido[2,3-d]pyrimidin-2-yl)amino)pyridin-3-yl)piperazin-1-yl)propyl)(methyl)amino)-2-(2,6-dioxopiperidin-3-yl) isoindoline-1,3-dione] | 0.05 to 0.2 | > 60 | < 0.05 | 0.05 to 0.2 | > 60 | dose-dependent inhibition of cell proliferation | – | – | –
7 | Cc1nc2c(F)cc(-c3nc(Nc4ccc(CN5CCN(CC6CN(c7ccc(N8CCC(=O)NC8=O)cc7)C6)CC5)cn4)ncc3F)cc2n1C(C)C [Compound 106, 1-(4-(3-((4-((6-((5-fluoro-4-(4-fluoro-1-isopropyl-2-methyl-1H-benzo[d]imidazol-6-yl)pyrimidin-2-yl)amino)pyridin-3-yl)methyl)piperazin-1-yl)methyl)azetidin-1-yl)phenyl) dihydropyrimidine-2,4(1H,3H)-dione] | < 0.05 | > 80 | < 0.05 | < 0.05 | > 80 | – | – | – | –
8 | Cc1nc2c(F)cc(-c3nc(Nc4ccc(CN5CCN(CC6CCN(c7ccc(N8CCC(=O)NC8=O)cc7)CC6)CC5)cn4)ncc3F)cc2n1C(C)C [Compound 108, 1-(4-(4-((4-((6-((5-fluoro-4-(4-fluoro-1-isopropyl-2-methyl-1H-benzo[d]imidazol-6-yl)pyrimidin-2-yl)amino)pyridin-3-yl)methyl)piperazin-1-yl)methyl)piperidin-1-yl)phenyl) dihydropyrimidine-2,4(1H,3H)-dione] | < 0.05 | > 80 | < 0.05 | < 0.05 | > 80 | – | – | – | –

More lines, main results first:

Row | DC50 (CDK6) [µM] | Dmax (CDK6) [%] | IC50 [1, 2] [µM] | DC50 (CDK4) [µM] | Dmax (CDK4) [%] | SMILES | inhibition of cell proliferation of Mino cells [1, 3] | Dmax CDK6 (CDK6) | IC50 ([1]; mantle cell lymphoma cell (Mino or JeKo-1); MTS assay, 72 h; read-out: IC50 (anti-proliferation)) [µM] | Dmax CDK4 (CDK4)
9 | < 0.05 | > 80 | < 0.05 | 0.05 to 0.2 | > 80 | Cc1nc2c(F)cc(-c3nc(Nc4ccc(CN5CCN(CCNc6cccc7c6C(=O)N(C6CCC(=O)NC6=O)C7=O)CC5)cn4)ncc3F)cc2n1C(C)C (centres unmarked) [Compound 92, 2-(2,6-dioxopiperidin-3-yl)-4-((2-(4-((6-((5-fluoro-4-(4-fluoro-1 isopropyl-2-methyl-1H-benzo[d]imidazol-6-yl)pyrimidin-2-yl)amino)pyridin-3-yl)methyl)piperazin-1-yl)ethyl)amino) isoindoline-1,3-dione] | dose-dependent inhibition of cell proliferation | – | – | –
10 | < 0.05 | > 80 | < 0.05 | < 0.05 | > 80 | Cc1nc2c(F)cc(-c3nc(Nc4ccc(CN5CCN(CC6CN(c7ccc8c(c7)CN(C7CCC(=O)NC7=O)C8=O)C6)CC5)cn4)ncc3F)cc2n1C(C)C (centres unmarked) [Compound 95, 3-(5-(3-((4-((6-((5-fluoro-4-(4-fluoro-1-isopropyl-2-methyl-1H-benzo[d]imidazol-6-yl)pyrimidin-2-yl)amino)pyridin-3-yl)methyl)piperazin-1-yl)methyl)azetidin-1-yl)-1-oxoisoindolin-2-yl)piperidine-2,6-dione] | – | – | – | –
11 | < 0.05 | > 80 | < 0.05 | < 0.05 | > 80 | Cc1nc2c(F)cc(-c3nc(Nc4ccc(CN5CCN(C6CN(c7ccc(C(=O)NC8CCC(=O)NC8=O)cc7)C6)CC5)cn4)ncc3F)cc2n1C(C)C (centres unmarked) [Compound 96, N-(2,6-dioxopiperidin-3-yl)-4-(3-(4-((6-((5-fluoro-4-(4-fluoro-1-isopropyl-2-methyl-1H-benzo[d]imidazol-6-yl)pyrimidin-2-yl)amino)pyridin-3-yl)methyl)piperazin-1-yl)azetidin-1-yi)benzamide] | – | – | – | –
12 | 0.05 to 0.2 | > 80 | 0.05 to 0.2 | 0.05 to 0.2 | > 80 | Cc1nc2c(F)cc(-c3nc(Nc4ccc(CN5CCN(C6CN(c7cccc8c7C(=O)N(C7CCC(=O)NC7=O)C8=O)C6)CC5)cn4)ncc3F)cc2n1C(C)C (centres unmarked) [Compound 98, 2-(2,6-dioxopiperidin-3-yl)-4-(3-(4-((6-((5-fluoro-4-(4-fluoro-1 isopropyl-2-methyl-1H-benzo[d]imidazol-6-yl)pyrimidin-2-yl)amino)pyridin-3-yl)methyl)piperazin-1-yl)azetidin-1-yl)isoindoline-1,3-dione] | – | – | – | –
13 | 0.05 to 0.2 | > 60 | 0.05 to 0.2 | 0.05 to 0.2 | > 80 | CC(=O)c1c(C)c2cnc(Nc3ccc(N4CCN(C5CN(c6ccc(C(=O)NC7CCC(=O)NC7=O)cc6)C5)CC4)cn3)nc2n(C2CCCC2)c1=O (centres unmarked) [Compound 102, 4-(3-(4-(6-((6-acetyl-8-cyclopentyl-5-methyl-7-oxo-7,8-dihydropyrido[2,3-d]pyrimidin-2-yl)amino)pyridin-3-yl)piperazin-1-yl)azetidin-1-yl)-N-(2,6-dioxopiperidin-3-yl)benzamide] | – | – | – | –
14 | < 0.05 | > 80 | < 0.05 | < 0.05 | > 80 | CC(=O)c1c(C)c2cnc(Nc3ccc(N4CCN(CCCNc5ccc(N6CCC(=O)NC6=O)cc5)CC4)cn3)nc2n(C2CCCC2)c1=O [Compound 105, 1-(4-((3-(4-(6-((6-acetyl-8-cyclopentyl-5-methyl-7-oxo-7,8-dihydropyrido[2,3-d]pyrimidin-2-yl)amino)pyridin-3-yl)piperazin-1-yl)propyl)amino)phenyl)dihydro-pyrimidine-2,4 (1H,3H)-dione] | – | – | – | –
15 | < 0.05 | > 80 | < 0.05 | < 0.05 | > 80 | Cc1nc2c(F)cc(-c3nc(Nc4ccc(CN5CCN(CCCNc6ccc(N7CCC(=O)NC7=O)cc6)CC5)cn4)ncc3F)cc2n1C(C)C [Compound 107, 1-(4-((3-(4-((6-((5-fluoro-4-(4-fluoro-1-isopropyl-2-methyl-1H-benzo[d]imidazol-6-yl)pyrimidin-2-yl)amino)pyridin-3-yl)methyl)piperazin-1-yl)propyl)amino)phenyl)dihydro-pyrimidine-2,4 (1H,3H)-dione] | – | – | – | –
16 | < 0.05 | > 80 | < 0.05 | < 0.05 | > 80 | Cc1nc2c(F)cc(-c3nc(Nc4ccc(CN5CCN(C6CCN(c7ccc(N8CCC(=O)NC8=O)cc7)CC6)CC5)cn4)ncc3F)cc2n1C(C)C [Compound 109, 1-(4-(4-(4-((6-((5-fluoro-4-(4-fluoro-1-isopropyl-2-methyl-1H-benzo[d]imidazol-6-yl)pyrimidin-2-yl)amino)pyridin-3-yl)methyl)piperazin-1-yl)piperidin-1-yl)phenyl) dihydropyrimidine-2,4(1H,3H)-dione] | – | – | – | –
